Laboratory results reported in BigSolDB 2.1.

COc1ccc(CC(=O)O)cc1
solubility (mole fraction)
Conditions	283.15 K	288.15 K	293.15 K	298.15 K	303.15 K	308.15 K	313.15 K	318.15 K	323.15 K
in acetonitrile	0.0423	0.0499	0.0587	0.0687	0.0803	0.0941	0.112	0.135	0.166
in anisole	0.0323	0.0425	0.0519	0.0626	0.0737	0.0858	0.0999	0.118	0.139
in isopropanol	0.114	0.142	0.169	0.198	0.228	0.258	0.289	0.323	0.351
in morpholine	0.0094	0.0139	0.0185	0.0239	0.0293	0.0348	0.0404	0.0459	0.0503
in toluene	0.0166	0.0209	0.0264	0.0337	0.0415	0.0522	0.0641	0.0784	0.0941
in water	0.0011	0.002	0.0031	0.0043	0.0057	0.0069	0.0079	0.0092	0.0105
